Reference: patent US10016498B2, “D-amino acid derivative-modified peptidoglycan and methods of use thereof” (priority 2012, dated 2018)

Columns and labels:
L. monocytogenes PG [1] = test: alkDala labeling of newly synthesized PG: growth phase, vancomycin-BODIPY colocalization, antibiotic treatment; assay type: cell-based
L. monocytogenes PG [2] = test: HPLC and mass spectrometry of muropeptides from purified PG; assay type: cell-based
Source text: Having ruled out other potential sites of D-alanine derivative labeling, direct evidence of its incorporation into PG was sought. PG comprises a repeating disaccharide to which is conjugated a short peptide, termed the stem peptide (FIG. 1A). Although newly synthesized PG stem peptide usually terminates in D-alanine-D-alanine, diverse bacterial phyla produce and incorporate D-amino acids other than D-alanine into those positions. (17, 18) The process is flexible; various natural and unnatural D-amino acids appear to incorporate, albeit at varying efficiencies. […] After digesting the PG with muramidase, HPLC was used to detect muropeptides by absorbance at either 204 nm (to visualize all species) or 500 nm (to identify fluorophore-containing fragments). […] PG samples from E. coli incubated in azDala alone were analyzed; and it was determined that the fraction of D-alanine that had been replaced with the synthetic analog was roughly 50% of the tetrapeptide pool and 15% of the total muropeptide population.
FIGS. 2A-D. AlkDala incorporates into L. monocytogenes PG. […] Absorbance at 204 nm, blue, and at 500 nm, red, are shown. […] The most abundant peaks detected at 500 nm were collected and subjected to analysis by mass spectrometry, (D), to identify the chemical structure of the alkDala-containing muropeptides conjugated to azido-fluor 488, (B).

[3] = system: L. monocytogenes in J774 macrophages; test: alkDala labeling of intracellular bacteria during J774 macrophage infection; assay type: cell-based; settings: 50 mM alkDala, azido-fluor 488
L. monocytogenes = assay type: cell-based
E. coli PG = assay type: cell-based, Escherchia coli
[4] = system: peptidoglycan of gram-positive bacteria; test: Incorporation of cyclooctyne D-amino acids into peptidoglycan, azido-PEG3-carboxyrhodamine labeling, flow cytometry and microscopy; assay type: cell-based, L. monocytogenes
Experimental: With all three amino acids in hand, their incorporation into the peptidoglycan of gram-positive bacteria was tested. The bacteria were grown for one-doubling time in the presence of 5 mM unnatural amino acids 30 to 32. The cells were then washed to remove excess amino acid and labeled with 20 μM of the commercially available azido-PEG3-carboxyrhodamine. This fluorophore efficiently labels terminal-alkyne-tagged peptidoglycan under copper-click conditions. The cells were then washed to remove excess probe, fixed, and studied by flow-cytometry and microscopy.
To further confirm that peptidoglycan was being labeled, a competition experiment was performed.

[5] = system: bacteria (E. coli, Bacillus subtilis, L. monocytogenes, Mycobacterium tuberculosis, Streptomyces coelicolor, Corynebacterium glutamicum); assay type: cell-based

## C#CC[C@@H](N)C(=O)O [alkDala, R-propargylglycine]
L. monocytogenes PG [1]; one generation, azido-fluor 545
  colocalization of signal with vancomycin-BODIPY, a marker of nascent PG: colocalized
L. monocytogenes PG [2]; L. monocytogenes
  position of insertion in the PG stem peptide: fifth position
L. monocytogenes PG [2]; long periods of incubation
  change of PG structure compared to D-alanine incubation: did not appreciably change PG structure
[3]; longer pulse (3.5 hrs)
  site of labeling of intracellular L. monocytogenes: at the septa and poles
[3]; short pulse (last 30 minutes)
  site of labeling of intracellular L. monocytogenes: labeled more at the septa
L. monocytogenes
  labeling of dal- dat- D-alanine auxotroph compared to wildtype: labeled more strongly
E. coli PG
  position of insertion in the PG stem peptide: fourth position
[4]
  labeling of listeria lacking PBP5 versus wild type: enhanced labeling over wild type
[5]
  cell surface labeling by microscopy: Clear cell surface labeling of all species tested

## C[C@@H]1O[C@@H]1P(=O)(O)O [fosfomycin]
L. monocytogenes PG [1]
  effect of antibiotic treatment on alkDala labeling: completely abrogated

## penicillin
L. monocytogenes PG [1]
  effect of antibiotic treatment on alkDala labeling: much weaker effect

## C[C@@H](O)[C@H]1C(=O)N2C(C(=O)O)=C(S[C@@H]3CN[C@H](C(=O)N(C)C)C3)[C@H](C)[C@H]12 [meropenem]
L. monocytogenes PG [1]
  effect of antibiotic treatment on alkDala labeling: much weaker effect
